Experimental data published in PubChem BioAssay (NCI).
In brackets after ≈: the same amount, converted by molar mass.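 Following 48 hours of exposure in 96-well plates, responses at five concentrations were used to interpolate endpoints linearly. At the GI50, growth is halved. TGI is the concentration that stops growth completely.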

Experiments:
Experiment in all cases: DTP human tumour cell line panel, 48 h
786-0 renal = test system: 786-0 renal
CCRF-CEM leukemia = test system: CCRF-CEM leukemia
DU-145 prostate = test system: DU-145 prostate
HCT-116 colon = test system: HCT-116 colon
HL-60(TB) leukemia = test system: HL-60(TB) leukemia
HT29 colon = test system: HT29 colon
IGROV1 ovarian = test system: IGROV1 ovarian
K-562 leukemia = test system: K-562 leukemia
LOX IMVI melanoma = test system: LOX IMVI melanoma
M14 melanoma = test system: M14 melanoma
MCF7 breast = test system: MCF7 breast
MDA-MB-231 breast = test system: MDA-MB-231 breast
MDA-MB-435 = test system: MDA-MB-435
MDA-N = test system: MDA-N
MOLT-4 leukemia = test system: MOLT-4 leukemia
NCI/ADR-RES ovarian = test system: NCI/ADR-RES ovarian
OVCAR-3 ovarian = test system: OVCAR-3 ovarian
OVCAR-8 ovarian = test system: OVCAR-8 ovarian
RPMI-8226 leukemia = test system: RPMI-8226 leukemia
SF-539 CNS = test system: SF-539 CNS
SK-MEL-5 melanoma = test system: SK-MEL-5 melanoma
SN12C renal = test system: SN12C renal
SW-620 colon = test system: SW-620 colon
T-47D breast = test system: T-47D breast
U251 CNS = test system: U251 CNS
UACC-62 melanoma = test system: UACC-62 melanoma
UO-31 renal = test system: UO-31 renal
A498 renal = test system: A498 renal
A549 NSCLC = test system: A549 NSCLC
ACHN renal = test system: ACHN renal
BT-549 breast = test system: BT-549 breast
CAKI-1 renal = test system: CAKI-1 renal
COLO 205 colon = test system: COLO 205 colon
EKVX NSCLC = test system: EKVX NSCLC
HCC-2998 colon = test system: HCC-2998 colon
HCT-15 colon = test system: HCT-15 colon
HOP-62 NSCLC = test system: HOP-62 NSCLC
HOP-92 NSCLC = test system: HOP-92 NSCLC
HS 578T breast = test system: HS 578T breast
KM12 colon = test system: KM12 colon
MALME-3M melanoma = test system: MALME-3M melanoma
NCI-H226 lung = test system: NCI-H226 lung
NCI-H23 lung = test system: NCI-H23 lung
NCI-H460 lung = test system: NCI-H460 lung
NCI-H522 lung = test system: NCI-H522 lung
OVCAR-5 ovarian = test system: OVCAR-5 ovarian
PC-3 prostate = test system: PC-3 prostate
SF-295 CNS = test system: SF-295 CNS
SK-MEL-2 melanoma = test system: SK-MEL-2 melanoma
SK-MEL-28 melanoma = test system: SK-MEL-28 melanoma
SK-OV-3 ovarian = test system: SK-OV-3 ovarian
SNB-19 CNS = test system: SNB-19 CNS
SNB-75 CNS = test system: SNB-75 CNS
TK-10 renal = test system: TK-10 renal
UACC-257 melanoma = test system: UACC-257 melanoma

CC(=O)OCCOCN1C(=O)NC(=O)/C(=C/c2cccc(OCc3ccccc3)c2)C1=O
GI50 (786-0 renal): 62.1 µg/mL (≈ 142 µM) | GI50 (CCRF-CEM leukemia): 25 µg/mL (≈ 56.9 µM) | TGI (CCRF-CEM leukemia): 58.1 µg/mL (≈ 133 µM) | GI50 (DU-145 prostate): 66 µg/mL (≈ 151 µM) | GI50 (HCT-116 colon): 47.8 µg/mL (≈ 109 µM) | GI50 (HL-60(TB) leukemia): 15 µg/mL (≈ 34.2 µM) | TGI (HL-60(TB) leukemia): 48.6 µg/mL | GI50 (HT29 colon): 48 µg/mL (≈ 110 µM) | GI50 (IGROV1 ovarian): 33.6 µg/mL (≈ 76.7 µM) | GI50 (K-562 leukemia): 34.9 µg/mL (≈ 79.7 µM) | GI50 (LOX IMVI melanoma): 35.7 µg/mL (≈ 81.4 µM) | GI50 (M14 melanoma): 55.4 µg/mL (≈ 126 µM) | GI50 (MCF7 breast): 42.5 µg/mL (≈ 97 µM) | GI50 (MDA-MB-231 breast): 94.7 µg/mL (≈ 216 µM) | GI50 (MDA-MB-435): 63.6 µg/mL (≈ 145 µM) | GI50 (MDA-N): 29.4 µg/mL (≈ 67.1 µM) | GI50 (MOLT-4 leukemia): 35.3 µg/mL (≈ 80.5 µM) | GI50 (NCI/ADR-RES ovarian): 19.9 µg/mL (≈ 45.4 µM) | TGI (NCI/ADR-RES ovarian): 45.4 µg/mL (≈ 104 µM) | GI50 (OVCAR-3 ovarian): 50.3 µg/mL (≈ 115 µM) | GI50 (OVCAR-8 ovarian): 37.9 µg/mL (≈ 86.6 µM) | GI50 (RPMI-8226 leukemia): 29.1 µg/mL (≈ 66.4 µM) | TGI (RPMI-8226 leukemia): 73.2 µg/mL | GI50 (SF-539 CNS): 23.4 µg/mL (≈ 53.3 µM) | TGI (SF-539 CNS): 79.1 µg/mL | GI50 (SK-MEL-5 melanoma): 33.5 µg/mL (≈ 76.3 µM) | GI50 (SN12C renal): 66 µg/mL (≈ 151 µM) | GI50 (SW-620 colon): 68.1 µg/mL (≈ 155 µM) | GI50 (T-47D breast): 73.9 µg/mL (≈ 169 µM) | GI50 (U251 CNS): 55.7 µg/mL (≈ 127 µM) | GI50 (UACC-62 melanoma): 48.5 µg/mL (≈ 111 µM) | GI50 (UO-31 renal): 65.9 µg/mL (≈ 150 µM)

C=C(C)C(=O)O[C@@H]1C/C(C)=C\[C@H](OC(C)=O)C[C@](C)(O)/C=C2/OC(=O)C(COC(C)=O)=C21
TGI (786-0 renal): 6.03 µM | TGI (A498 renal): > 20.8 µM | TGI (A549 NSCLC): > 23.3 µM | TGI (ACHN renal): 1.87 µM | TGI (BT-549 breast): 3.91 µM | TGI (CAKI-1 renal): 0.99 µM | TGI (COLO 205 colon): 2.37 µM | TGI (DU-145 prostate): 7.13 µM | TGI (EKVX NSCLC): 2.07 µM | TGI (HCC-2998 colon): 1.64 µM | TGI (HCT-116 colon): 1.7 µM | TGI (HCT-15 colon): 0.786 µM | TGI (HL-60(TB) leukemia): 0.0496 µM | TGI (HOP-62 NSCLC): > 100 µM | TGI (HOP-92 NSCLC): 37.5 µM | TGI (HS 578T breast): 47 µM | TGI (HT29 colon): 0.687 µM | TGI (IGROV1 ovarian): 3 µM | TGI (K-562 leukemia): 0.879 µM | TGI (KM12 colon): 23.5 µM | TGI (LOX IMVI melanoma): 0.373 µM | TGI (MALME-3M melanoma): 0.979 µM | TGI (MCF7 breast): > 36.5 µM | TGI (MDA-MB-231 breast): 2.63 µM | TGI (MDA-MB-435): 2.8 µM | TGI (MDA-N): 1.98 µM | TGI (MOLT-4 leukemia): 2.32 µM | TGI (NCI-H226 lung): 6.17 µM | TGI (NCI-H23 lung): 5.21 µM | TGI (NCI-H460 lung): 2.35 µM | TGI (NCI-H522 lung): 0.539 µM | TGI (OVCAR-5 ovarian): 4.55 µM | TGI (OVCAR-8 ovarian): 2.75 µM | TGI (PC-3 prostate): 3.63 µM | TGI (RPMI-8226 leukemia): 1.73 µM | TGI (SF-295 CNS): 23.9 µM | TGI (SF-539 CNS): > 28.5 µM | TGI (SK-MEL-2 melanoma): 14.1 µM | TGI (SK-MEL-28 melanoma): 0.762 µM | TGI (SK-MEL-5 melanoma): 8.4 µM | TGI (SK-OV-3 ovarian): 18.7 µM | TGI (SN12C renal): 2.85 µM | TGI (SNB-19 CNS): 41.8 µM | TGI (SNB-75 CNS): 16 µM | TGI (SW-620 colon): 1.93 µM | TGI (T-47D breast): 22.1 µM | TGI (TK-10 renal): 3.7 µM | TGI (UACC-257 melanoma): 3.62 µM | TGI (UACC-62 melanoma): 2.1 µM | TGI (UO-31 renal): 3.26 µM
